In article PMC5339874, “Fluorene-9-bisphenol is anti-oestrogenic and may cause adverse pregnancy outcomes in mice” (Nature Communications, 2017):

Tested on: CD-1 mice
Test: Subchronic and reproductive toxicity tests
Procedure: Immature CD-1 mice (20 days old) were obtained from Experimental Animal Tech Co. of Weitonglihua (Beijing, China) and acclimatized in an experimental environment with a temperature of 22 °C±2 °C, relative humidity between 40 and 60%, and artificial lighting in a 12 h/12 h light-dark cycle. The animals were fed ad libitum with a basic diet from the Laboratory Animal Center of the Academy of Military Medical Sciences (Beijing, China), and drinking water was provided ad libitum. […] The animals were housed five to a cage until the pairing date. The treatment via oral gavage of each mouse was performed once every 3 days beginning on PND 24. The chemicals were dissolved in peanut oil to the appropriate concentrations. The volume of vehicle or chemical solutions administered was adjusted daily based on body weight measured during the dosing period according to the volume-body weight ratio of 5 ml kg^−1 bw. On PND 60, 10 females of each group were weighed and killed by cervical dislocation. The uteri, ovaries, livers, kidneys and spleens were weighed and collected for histological analysis. At the age of PND 77, males and females were paired. Each morning, the females were examined for the presence of vaginal plugs. Gestational day 1 was defined as the day on which a vaginal plug was found. In cases where pairing was unsuccessful, females were re-mated with proven males of the same group, except that females in the 1.2 mg kg^−1 TAM group were re-mated with proven males of the control group. After a 7-day mating period, the males were weighed and killed, and organs were weighed and collected for further analysis. Cauda epididymal sperm was collected from each mouse and observed under a trinocular microscope (Olympus BX53) in physiological saline. A microscopic video was recorded and analysed for sperm quality evaluation. The treatment via oral gavage was continued for the females until day 19 of pregnancy. On post-partum days 0 and 4, the weights of the dams and pups were recorded and the pups were checked for abnormalities. On post-partum day 4, the dams were weighed and killed, and their organs were weighed and collected for further analysis. The ovaries and uteri were examined for the numbers of corpora lutea and implantation sites, respectively. Finally, the non-pregnant and nulliparous females were killed for histopathological analysis. For histological examination, organs and tissues were fixed in formalin fixation, embedded in paraffin, and sectioned serially at 5 μm. Slides were stained with hematoxylin and eosin (H&E), and observed under a light microscope (Olympus BX53).

Oc1ccc(C2(c3ccc(O)cc3)c3ccccc3-c3ccccc32)cc1 [BHPF, 9,9-bis(4-hydroxyphenyl)-fluorene]
Absorption sites in the uterus of dams (0.4 mg kg^−1 3-d^−1 BHPF): 0.14±0.36 | Birth weight of pups (0.4 mg kg^−1 3-d^−1 BHPF): 1.66±0.21 | Body weight of female pups at PND 4 (0.4 mg kg^−1 3-d^−1 BHPF): 3.08±0.57 | Body weight of male pups at PND 4 (0.4 mg kg^−1 3-d^−1 BHPF): 3.30±0.56 | Implantation sites in the uterus of dams (0.4 mg kg^−1 3-d^−1 BHPF): 15.21±2.02 | Number of dams (0.4 mg kg^−1 3-d^−1 BHPF): 14 | Number of live pups per litter (0.4 mg kg^−1 3-d^−1 BHPF): 12.71±2.55 | weight gain of males from PND 30 (0.4 mg kg^−1 3-d^−1 BHPF): higher weight gain than the control | non-pregnant females (0.4 mg kg^−1 bw 3-d^−1 BHPF): 1 | Absorption sites in the uterus of dams (2 mg kg^−1 3-d^−1 BHPF): 0.33±0.65 | Birth weight of pups (2 mg kg^−1 3-d^−1 BHPF): 1.59±0.24 | Body weight of female pups at PND 4 (2 mg kg^−1 3-d^−1 BHPF): 3.04±0.62 | Body weight of male pups at PND 4 (2 mg kg^−1 3-d^−1 BHPF): 3.18±0.59 | Implantation sites in the uterus of dams (2 mg kg^−1 3-d^−1 BHPF): 15.42±2.02 | Number of dams (2 mg kg^−1 3-d^−1 BHPF): 12 | Number of live pups per litter (2 mg kg^−1 3-d^−1 BHPF): 11.67±2.06 | non-pregnant females (2 mg kg^−1 bw 3-d^−1 BHPF): 3 | Absorption sites in the uterus of dams (10 mg kg^−1 3-d^−1 BHPF): 0.64±0.67 | Birth weight of pups (10 mg kg^−1 3-d^−1 BHPF): 1.54±0.18 | Body weight of female pups at PND 4 (10 mg kg^−1 3-d^−1 BHPF): 3.05±0.44 | Implantation sites in the uterus of dams (10 mg kg^−1 3-d^−1 BHPF): 16.09±1.81 | Number of dams (10 mg kg^−1 3-d^−1 BHPF): 11 | Number of live pups per litter (10 mg kg^−1 3-d^−1 BHPF): 12.73±1.85 | non-pregnant females (10 mg kg^−1 bw 3-d^−1 BHPF): 3 | fetal death (10 mg kg^−1 bw 3-d^−1 BHPF, a pregnant female): a dead fetus in late pregnancy was observed in the uterus | Absorption sites in the uterus of dams (50 mg kg^−1 3-d^−1 BHPF): 1.09±1.38 | Birth weight of pups (50 mg kg^−1 3-d^−1 BHPF): 1.64±0.16 | Body weight of female pups at PND 4 (50 mg kg^−1 3-d^−1 BHPF): 3.20±0.53 | Body weight of male pups at PND 4 (50 mg kg^−1 3-d^−1 BHPF): 3.21±0.51 | Implantation sites in the uterus of dams (50 mg kg^−1 3-d^−1 BHPF): 14.45±2.42 | Number of dams (50 mg kg^−1 3-d^−1 BHPF): 11 | Number of live pups per litter (50 mg kg^−1 3-d^−1 BHPF): 10.27±2.53 | late abortion (50 mg kg^−1 bw 3-d^−1 BHPF): one case of late abortion | maternal death (50 mg kg^−1 bw 3-d^−1 BHPF): one unexplained maternal death during parturition | non-pregnant females (50 mg kg^−1 bw 3-d^−1 BHPF): 2 | weight gain before pairing (BHPF 0.4–50, TAM 1.2 mg kg^−1 bw 3-d^−1): no significant differences in weight gain | doses causing adverse pregnancy outcomes (CD-1 mice): ≥ 2 mg kg^−1 bw 3-d^−1 | doses inducing atrophic endometria (CD-1 mice): ≥ 0.4 mg kg^−1 bw 3-d^−1 | pregnancy-related weight gain (all BHPF-treated groups): significantly decreased | analysis of ovary sections (females at PND 60): retarded follicular development and reduced the numbers of corpora lutea | histopathological examination of uteri (females at PND 60, 36-day exposure): serious atrophic endometria | weights of the ovaries on both sides (females at PND 60, BHPF groups, 1.2 mg kg^−1 bw 3-d^−1 TAM): not affected | doses significantly decreasing uterine weights and inducing atrophic endometria (intact female mice, oral gavage 36 days from PND 24): ≥ 2 mg kg^−1 3-d^−1 | sperm quality (males PND 84): No obvious adverse effects | pathological examination of seminal vesicle (males PND 84, TAM 1.2, BHPF 50 mg kg^−1 bw 3-d^−1 group): one case of unilateral seminal vesicle atrophy | histopathological examination of ovaries (non-pregnant females): haemorrhagic ovary cysts occurred
